The source of these data is patent publication US20100010002A1, “ANTICANCER USE OF CAFFEIC ACID AND ITS DERIVATIVES” (Piramal Life Sciences Limited, priority 2006, published 2010).

Like-named read-outs stand apart in the source and are kept apart here.

One assay addresses T1, Ba/F3 Bcr-Abl/H396R (Homo sapiens, UniProt P00519, H396R, cells depend on it).
T1 construct: fused on or other part: P11274 (Breakpoint cluster region protein)
In words: CCK-8 assay, Ba/F3 Bcr-Abl/H396R. The assay is classed as cell-based. The settings on record: mouse, 72 h. Background: Formazan colour is commonly taken as a measure of viable cells.

The next assay deals with Ba/F3 Bcr-Abl/T315I (Homo sapiens, UniProt P00519, T315I, cells depend on it). The text has this:
(§1) The cell lines described in Table 3 were used to test the antiproliferative activity of test compounds.
(§2) Cell Counting Kit-8 (CCK-8) allows very convenient assay by utilizing Dojindo's highly water-soluble tetrazolium salt. CCK-8, being nonradioactive, allows sensitive colorimetric assay for the determination of number of viable cells in cell proliferation and cytotoxicity assays. The amount of the formazan dye generated by dehydrogenases in cells is directly proportional to the number of living cells. Thus, the CCK-8 assay can also be substituted for the H^3-Thymidine incorporation assay.
(§3) Plates were further incubated at 37° C., 5% CO2 incubator for 72 h. 10 μl of the CCK-8 solution was added to each well and plate was incubated for 1-4 h in the incubator. Measured the absorbance at 450 nm using a microplate reader.
(§4) A. The percent inhibition and IC50 were calculated in comparison with control values.

Another assay addresses T2, Ba/F3 Bcr-Abl/H396P (Homo sapiens, UniProt P00519, H396P, cells depend on it).
T2 construct: fused on or other part: P11274 (Breakpoint cluster region protein)
In words: CCK-8 assay, Ba/F3 Bcr-Abl/H396P. The class given is cell-based. To be noted: mouse, 72 h.

The target of another assay is T3, Ba/F3 Bcr-Abl/Q252H (Homo sapiens, UniProt P00519, Q252H, cells depend on it).
T3 construct: fused on or other part: P11274 (Breakpoint cluster region protein)
In words: CCK-8 assay, Ba/F3 Bcr-Abl/Q252H. The class given is cell-based. To be noted: mouse, 72 h.

The test system of the next assay is K562. In words: CCK-8 cell proliferation and cytotoxicity assay, K562. The settings on record: Homo sapiens, K562, 72 h; read-out: Inhibitory concentration (IC50), K562. The assay is classed as cell-based, Human.
A further assay has as its system K-562. In words: 3H-Thymidine uptake cell proliferation assay, K-562. The settings on record: Homo sapiens, K562, 72 h incubation, read-out: Antiproliferative activity IC50, K-562. The assay is classed as cell-based. As to the method:
(§5) ^3H-Thymidine uptake assay: ^3H-Thymidine-incorporation is directly proportional to the number of dividing cells in culture.
(§6) Exponentially growing cultures were subjected to different concentrations of test compounds and standard as given below.
(§7) Cells were seeded at a density of 3×10^3 to 5×10^3 per well (in 0.180 mL) in transparent 96 well tissue culture plate (NUNC, USA) and were allowed to incubate at 37° C. in 5% carbon dioxide incubator for 2-6 h. Test compounds were diluted in medium (RPMI1640 with 10% FBS) at various concentrations, and 0.02 mL of 10× stocks were added to each well in triplicate. Plates were incubated at 37° C. in 5% carbon dioxide incubator for 72 h, with an intermittent microscopic observation every 24 h.
(§8) After 72 h incubation, the plate was centrifuged at 1000 rpm for 10 mins in a plate centrifuge. Supernatant was carefully aspirated and ^3H-Thymidine was added to all wells at a concentration of 0.5 μCi/well in 0.1 mL complete medium. Plates were further incubated at 37° C. in 5% carbon dioxide incubator for 6-14 h.
(§9) The filter plate was dried completely at 60° C. for 1 h, or overnight (16 h) at room temperature (25° C.). […] The plate was sealed from the top, read on scintillation counter (TopCount, Packard), and percent inhibition and IC50 in comparison with control values was calculated.

A further assay concerns K-562-R. In words: 3H-Thymidine uptake cell proliferation assay, K-562-R. The class given is cell-based. To be noted: Homo sapiens, 72 h incubation, K-562-R (GLEEVEC resistant), read-out: Antiproliferative activity IC50, K-562-R. As to the method: as §5, §6, §7, §8, §9
Another assay concerns the target T4, Ba/F3 Bcr-Abl/WT (Homo sapiens, UniProt P00519).
T4 construct: fused on or other part: P11274 (Breakpoint cluster region protein)
In words: CCK-8 assay, Ba/F3 Bcr-Abl/WT. The settings on record: CCK-8, 72 h, imatinib mesylate sensitive; read-out: Inhibitory concentration (IC50), Ba/F3 Bcr-Abl/WT. The class given is cell-based.
From the text: as §1, §2, §3, §4

A further assay concerns the target T5, Ba/F3 Bcr-Abl/M351T (Homo sapiens, UniProt P00519, M351T, cells depend on it).
T5 construct: fused on or other part: P11274 (Breakpoint cluster region protein)
In words: CCK-8 assay, Ba/F3 Bcr-Abl/M351T. The class given is cell-based. To be noted: mouse, 72 h.

The target of a further assay is T6, Ba/F3 Bcr-Abl/F317L (Homo sapiens, UniProt P00519, F317L, cells depend on it).
T6 construct: fused on or other part: P11274 (Breakpoint cluster region protein)
In words: CCK-8 assay, Ba/F3 Bcr-Abl/F317L. The assay is classed as cell-based. The settings on record: mouse, 72 h.

The target in another assay is T7, Ba/F3 Bcr-Abl/F359V (Homo sapiens, UniProt P00519, F359V, cells depend on it).
T7 construct: fused on or other part: P11274 (Breakpoint cluster region protein)
In words: CCK-8 assay, Ba/F3 Bcr-Abl/F359V. The class given is cell-based. To be noted: mouse, 72 h.

In a further assay the target is T8, 32Dcl^Bcr-Abl T315I (Homo sapiens, UniProt P00519, T315I, cells depend on it).
T8 construct: Mouse fibroblast with T315I mutated Bcr-Abl; fused on or other part: P11274 (Breakpoint cluster region protein)
In words: 3H-Thymidine uptake cell proliferation assay, 32Dcl Bcr-Abl T315I. The assay is classed as cell-based, Mouse. The settings on record: 72 h incubation, read-out: Antiproliferative activity IC50, 32Dcl^Bcr-Abl T315I. As to the method:
as §5, §6, §7, §8, §9

The target in the next assay is T9, Ba/F3 Bcr-Abl/M244V (Homo sapiens, UniProt P00519, M244V, cells depend on it).
T9 construct: fused on or other part: P11274 (Breakpoint cluster region protein)
In words: CCK-8 assay, Ba/F3 Bcr-Abl/M244V. The assay is classed as cell-based. The settings on record: mouse, 72 h.

In another assay the target is T10, Ba/F3 Bcr-Abl/E255V (Homo sapiens, UniProt P00519, E255V, cells depend on it).
T10 construct: fused on or other part: P11274 (Breakpoint cluster region protein)
In words: CCK-8 assay, Ba/F3 Bcr-Abl/E255V. The class given is cell-based. The settings on record: mouse, 72 h.

A further assay concerns the target T11, Ba/F3 Bcr-Abl/Y253H (Homo sapiens, UniProt P00519, Y253H, cells depend on it).
T11 construct: fused on or other part: P11274 (Breakpoint cluster region protein)
In words: CCK-8 assay, Ba/F3 Bcr-Abl/Y253H. To be noted: mouse, 72 h. The assay is classed as cell-based.

The target of assay [1] is T12, p210^bcr-abl tyrosine kinase (Homo sapiens, UniProt P00519).
T12 construct: immunoprecipitation of p210^bcr-abl tyrosine kinase from K-562 cell lysate; BCR (natural N-terminal fusion partner of the p210 BCR-ABL oncoprotein); endogenous in cells; host or cells: K-562 (human leukemic cell line); the other entry of the earlier key: BCR (P11274, Breakpoint cluster region protein)
In words: Bcr-abl kinase assay: autophosphorylation after immunoprecipitation from treated K-562 cells. The assay is classed as cell-based. To be noted: K-562 cells treated at IC50 and 3×IC50 for 24 h. As to the method:
To study inhibition of autophosphorylation of Bcr-abl. Study was carried out by immunoprecipitation of p210^bcr-abl tyrosine kinase from K-562 cell lysate, followed by kinase enzyme assay. The reaction mixture was subjected to SDS-PAGE followed by autoradiography.
To check for the inhibition of autophosphorylation of p210^bcr-abl tyrosine kinase by compounds of the present invention, K-562 cells which express wild type Bcr-abl were used. […] Cells were washed with PBS solution and lysed using lysis buffer (CelLytic M Cell Lysis reagent, Sigma Aldrich, USA) for 2-3 h in cold conditions. Protein was estimated by Bradford method (Bradford reagent, Sigma Aldrich, USA). For immunoprecipitation equal amount of protein is taken from all samples. A p210^bcr-abl protein was immunoprecipitated using polyclonal anti-c-abl antibody (Santa Cruz Biotechnologies, USA) followed by incubation at 4° C. overnight with Protein A-Sepharose. […]
Kinase reaction was performed using 0.5 μCi (γ^32P)-adenosine triphosphate per reaction and incubated for 30 minutes at room temperature (25° C.). […] Autophosphorylation reaction products are resolved on SDS-PAGE and detected by autoradiography.

The next assay has as its target T13, Ba/F3 Bcr-Abl/E255K (Homo sapiens, UniProt P00519, E255K, cells depend on it).
T13 construct: fused on or other part: P11274 (Breakpoint cluster region protein)
In words: CCK-8 assay, Ba/F3 Bcr-Abl/E255K. The assay is classed as cell-based. To be noted: mouse, 72 h.

A further assay concerns the target T14, Ba/F3 Bcr-Abl/Y253F (Homo sapiens, UniProt P00519, Y253F, cells depend on it).
T14 construct: fused on or other part: P11274 (Breakpoint cluster region protein)
In words: CCK-8 assay, Ba/F3 Bcr-Abl/Y253F. The assay is classed as cell-based. To be noted: mouse, 72 h.

As to `COC(=O)C=Cc1ccc(O)c(O)c1` [Compound 2, 3-(3,4-Dihydroxy-phenyl)-acrylic acid methyl ester], the GI50 was found to be 18.8 µM on Ba/F3 Bcr-Abl/H396R; 6.3 µM at Ba/F3 Bcr-Abl/T315I (mouse, ba/f3 bcr-abl/t315i, 72 h); 3.8 ± 1.9 µM at Ba/F3 Bcr-Abl/T315I (read-out: Inhibitory concentration (IC50), Ba/F3 Bcr-Abl/T315I, CCK-8, 72 h, imatinib mesylate resistant, Table 4); 26.2 µM at Ba/F3 Bcr-Abl/H396P; 15.4 µM at Ba/F3 Bcr-Abl/Q252H; 7.9 ± 2.1 µM on Ba/F3 Bcr-Abl/WT. The GI50 on Ba/F3 Bcr-Abl/M351T turned out to be 16.1 µM; at Ba/F3 Bcr-Abl/F317L, 23.5 µM; on Ba/F3 Bcr-Abl/F359V, 18.4 µM; on 32Dcl^Bcr-Abl T315I it was 35 µM; at Ba/F3 Bcr-Abl/M244V, 30.1 µM; on Ba/F3 Bcr-Abl/E255V, 18.9 µM. The GI50 at Ba/F3 Bcr-Abl/Y253H was determined as 14.5 µM; at Ba/F3 Bcr-Abl/E255K it was 15 µM; on Ba/F3 Bcr-Abl/Y253F it was 17 µM. Also, the values for the IC50 in the assay with K562, with K-562 and with K-562-R were 13.3 ± 2.1 µM, 13.6 ± 2.3 µM and 23 µM, respectively. For the same molecule, the “Inhibition of autophosphorylation of Bcr-abl (band density, autoradiography)” value in [1] is reported as “potent Bcr-abl tyrosine kinase inhibitor”.
